# According to US10392398B2, “Inhibitors of Late SV40 Factor (LSF) as cancer chemotherapeutics” (TRUSTEES OF BOSTON UNIVERSITY, priority 2010, dated 2019):
# Several values for one entry are separate records, joined by “and”; a condition that tells them apart may be missing. Equal values may be shown once. Read-outs that look alike come from different tables or passages of the source.
# What was measured:
# [1] = Pharmacokinetic analysis in rat plasma; assay type: in vivo; conditions: for Vd: read-out: VDss; for bioavailability: read-out: % Bioavailability F
# Experimental: The purpose of the study was to measure the concentration of FQI-34 in rat plasma samples. The study was performed under non-GLP conditions. All work was performed with appropriate local health regulation and ethical approval. Plasma samples were taken at 0.08, 0.25, 0.5, 1, 2, 4, 8, and 24 hours. Plasma samples were crashed with three volumes of methanol containing an analytical internal standard (propranolol/bucetin/diclofenac). Samples were then centrifuged to remove precipitated protein, and the supernatant was analyzed by LC-MS/MS using a Waters Xevo TQ mass spectrometer coupled with an Acuity HPLC and a CTC PAL chilled autosampler, all controlled by MassLynx software (Waters). The analyte signal was optimized prior to analysis. After separation on a C18 reverse phase HPLC column (Waters Acquity HSS T3 2.1×50 mm 1.8 μM) using an acetonitrile-water gradient system, peaks were analyzed by mass spectrometry (MS) using ESI ionization in MRM mode. All plasma samples were compared to a calibration curve prepared in rat blank plasma.
# Male Sprague-Dawley rats were obtained from a commercial source and housed in an AAALAC-approved facility until dosing. For IV dosing, FQI-34 was dissolved in 10% ethanol/16% PEG-400/74% saline at 0.4 mg/mL and in a 1% methylcellulose/0.5% Tween-80 suspension at 10 mg/mL for PO dosing. Three rats per group were dosed by a single IV bolus (10 mL/kg) or PO (10 mL/kg).
# Plasma PK-parameters were independently verified and interpreted using PK-solver: An Excel add-In (Zhang, Y. et al. PKSolver: An add-in program for pharmacokinetic and pharmacodynamic data analysis in Microsoft Excel. Comput. Methods Programs Biomed. (2010) 99, 306-314), via a non-compartmental analysis using the linear-trapezoidal method (Fan, J. Pharmacokinetics. Biochemical Pharmacology (2014) 87, 93-120).
# [2] = molecular target: T1, LSF (Homo sapiens, UniProt Q12800); assay: Cellular Thermal Shift Assay (CETSA), LSF; assay type: binding; design: expressed in transfected cells
# T1 sequence (Q12800 1-502): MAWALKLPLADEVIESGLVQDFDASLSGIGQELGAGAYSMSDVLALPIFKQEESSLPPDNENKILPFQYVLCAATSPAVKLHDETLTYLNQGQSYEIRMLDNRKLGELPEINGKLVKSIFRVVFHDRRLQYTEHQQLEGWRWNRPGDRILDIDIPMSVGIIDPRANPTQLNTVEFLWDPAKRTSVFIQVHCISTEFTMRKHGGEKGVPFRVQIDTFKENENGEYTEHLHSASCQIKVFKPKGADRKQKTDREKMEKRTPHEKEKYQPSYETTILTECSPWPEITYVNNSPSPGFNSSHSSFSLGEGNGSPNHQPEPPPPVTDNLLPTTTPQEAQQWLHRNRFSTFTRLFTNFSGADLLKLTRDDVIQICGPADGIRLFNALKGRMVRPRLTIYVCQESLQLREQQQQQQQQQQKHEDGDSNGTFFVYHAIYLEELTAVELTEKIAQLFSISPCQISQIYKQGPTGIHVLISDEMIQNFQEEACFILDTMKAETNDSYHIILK
# Experimental: Drug-target engagement was assessed using CETSA as described by Molina et al. (Monitoring Drug-Target Engagement in Cells and Tissues Using Cellular Thermal Shift Assay. Science (2013) 341, 84-87). QGY-7703 cells were cultured at 37° C. in 5% CO2 in DMEM (Dulbecco's modification of Eagle's Medium; Corning) supplemented with 10% Fetal Bovine Serum (FBS; Invitrogen). Cells were seeded into 10 cm plates and allowed to reach 60-80% confluency. After trypsinization (0.05% Trypsin-EDTA, Invitrogen), cell pellet was washed twice with ice-cold 1×PBS (137 mM NaCl, 2.7 mM KCl, 10 mM Na2HPO4, 2 mM KH2PO4, pH 7.2). Cell pellet was lysed by addition of 200 μL freshly prepared ice-cold RIPA buffer (10 mM Tris-Cl pH 8.0, 1 mM EDTA, 0.5 mM EGTA, 1% Triton X-100, 0.1% sodium deoxycholate, 0.1% SDS, 140 mM NaCl) supplemented with 1 mM Pefabloc (Sigma-Aldrich), and flash frozen in liquid nitrogen and thawed for a total of three cycles. Cell lysate was centrifuged at 20,000×g for 20 minutes to clarify. Supernatant was either treated immediately or saved at −80° C. for future use. […]
# Immunoblots were quantified using Image J and graphed using GraphPad PRISM. Area-under-the-curve (AUC) for the quantified western blots were calculated with GraphPad PRISM and non-parametric t-test was calculated to determine statistical significance between the curves. […]
# [3] = male, Sprague-Dawley, rat, plasma, iv, 4 mg/kg, rat plasma, IV 4 mg/kg, AVERAGE
# [4] = male, Sprague-Dawley, rat, plasma, iv, 4 mg/kg, rat plasma, IV 4 mg/kg, individual rats A, B, C
# [5] = rat plasma, IV 4 mg/kg, individual rats A, B, C, 4 mg/kg
# [6] = rat plasma, PO 100 mg/kg, individual rats A, B, C, 100 mg/kg
# [7] = rat, IV 4 mg/kg, individual rats A, B, C, 4 mg/kg
smiles,measurement,setting,value
"CCOc1cc(N(C)C)ccc1C1CC(=O)Nc2cc3c(cc21)OCO3 (centres unmarked) [FQI-34, 8-(4-(dimethylamino)-2-ethoxyphenyl)-7,8-dihydro-[1,3]dioxolo[4,5-g]quinolin-6(5H)-one]",clearance,"[1]; male, Sprague-Dawley, rat, plasma, iv, 4 mg/kg, IV 4 mg/kg, AVERAGE",73 mL/min/kg
same,clearance,"[1]; male, Sprague-Dawley, rat, plasma, iv, 4 mg/kg, IV 4 mg/kg, individual rats A, B, C",65 mL/min/kg
same,AUC(0-inf),[1]; [3],935 ng·h/mL
same,half-life,[1]; [3],48.6 min
same,C0,"[1]; male, Sprague-Dawley, rat, plasma, iv, 4 mg/kg, rat plasma, IV 4 mg/kg, AVERAGE, read-out: C0",423 ng/mL
same,Cmax,"[1]; male, Sprague-Dawley, rat, plasma, iv, 4 mg/kg, rat plasma, IV 4 mg/kg, AVERAGE, read-out: Cmax",552 ng/mL
same,Tmax,"[1]; male, Sprague-Dawley, rat, plasma, iv, 4 mg/kg, rat plasma, IV 4 mg/kg, AVERAGE, read-out: Tmax",25.2 min
same,AUC(0-inf),[1]; [4],1020 ng·h/mL
same,half-life,[1]; [4],43.8 min
same,C0,"[1]; male, Sprague-Dawley, rat, plasma, iv, 4 mg/kg, rat plasma, IV 4 mg/kg, individual rats A, B, C, read-out: C0",434 ng/mL
same,Cmax,"[1]; male, Sprague-Dawley, rat, plasma, iv, 4 mg/kg, rat plasma, IV 4 mg/kg, individual rats A, B, C, read-out: Cmax",545 ng/mL
same,Tmax,"[1]; male, Sprague-Dawley, rat, plasma, iv, 4 mg/kg, rat plasma, IV 4 mg/kg, individual rats A, B, C, read-out: Tmax",30 min
same,Vd,"[1]; male, Sprague-Dawley, rat, plasma, iv, 4 mg/kg, rat, IV 4 mg/kg, AVERAGE",5.1 L/kg
same,Vd,"[1]; male, Sprague-Dawley, rat, plasma, iv, 4 mg/kg, rat, IV 4 mg/kg, individual rats A, B, C",4.6 L/kg
same,AUC(0-inf),"[1]; male, Sprague-Dawley, rat, plasma, po, 100 mg/kg, rat plasma, PO 100 mg/kg, AVERAGE",4960 ng·h/mL
same,Cmax,"[1]; male, Sprague-Dawley, rat, plasma, po, 100 mg/kg, rat plasma, PO 100 mg/kg, AVERAGE, read-out: Cmax",526 ng/mL
same,Tmax,"[1]; male, Sprague-Dawley, rat, plasma, po, 100 mg/kg, rat plasma, PO 100 mg/kg, AVERAGE, read-out: Tmax",162 min
same,AUC(0-inf),"[1]; male, Sprague-Dawley, rat, plasma, po, 100 mg/kg, rat plasma, PO 100 mg/kg, individual rats A, B, C",4900 ng·h/mL
same,Cmax,"[1]; male, Sprague-Dawley, rat, plasma, po, 100 mg/kg, rat plasma, PO 100 mg/kg, individual rats A, B, C, read-out: Cmax",500 ng/mL
same,Tmax,"[1]; male, Sprague-Dawley, rat, plasma, po, 100 mg/kg, rat plasma, PO 100 mg/kg, individual rats A, B, C, read-out: Tmax",240 min
same,bioavailability,"[1]; male, Sprague-Dawley, rat, plasma, po, 100 mg/kg, rat, PO 100 mg/kg, AVERAGE",21%
same,bioavailability,"[1]; male, Sprague-Dawley, rat, plasma, po, 100 mg/kg, rat, PO 100 mg/kg, individual rats A, B, C",21%
same,AUC(0-∞),[1]; [5],759 ng·h/mL and 1028 ng·h/mL
same,C0,[1]; [5],446 ng/mL and 390 ng/mL
same,Cmax,[1]; [5],548 ng/mL and 564 ng/mL
same,T1/2,[1]; [5],43.2 min and 59.4 min
same,Tmax,[1]; [5],15 min
same,AUC(0-∞),[1]; [6],4026 ng·h/mL and 5936 ng·h/mL
same,Cmax,[1]; [6],501 ng/mL and 577 ng/mL
same,Tmax,[1]; [6],120 min
same,CL,[1]; [7],88 mL/min/kg
same,VDss,[1]; [7],5.4 L/kg and 5.3 L/kg
same,% Bioavailability F,"[1]; rat, PO 100 mg/kg, individual rats A, B, C, 100 mg/kg",17% and 25%
same,binding to LSF by CETSA,"[2]; QGY-7703 lysate, 500 μM",directly binds
same,LSF CETSA,"[2]; Table 5, YES/NO",YES
